Converted amounts (≈) assume the structure as drawn. “Also recorded” adds a separate entry of the source. Where two headings read alike, the source gives them in different places. Where a SMILES comes first, the peptide text is derived from it. The star is where a group is joined. Boc = CC(C)(C)OC(=O)*
Columns and labels:
oxyHb = oxyHb (Homo sapiens, UniProt P68871+P69905); experiment: Effect of compounds on the oxyHb absorption spectrum (oxidation of oxyHb to metHb); format: biochemical; settings: 1 mM compound, 10 µM oxyHb, 4 °C
Protocol: Absorption spectra of the commercial compounds alone or in the presence of oxyHb were recorded with a microplate reader (TECAN Spark® 10 M) in a 384-well, UV-transparent microplate (Greiner UV-STAR® plate—781801). The compounds were diluted in binding buffer to a 2 mM concentration, and the pH of the solutions was adjusted in the range 6.5–7.5. Compounds were then tested at 1 mM concentration to assess for any absorbance around 450 nm that might interfere with the immunoassay. The effect of compounds on the oxyHb spectrum was assessed under the same conditions in the presence of 10 µM oxyHb. […] All the incubation steps were performed at 4 °C, as in the immunoassay. Spectra were subtracted from the contribution of the blank and the compound.
Absorption spectra of the compounds in solution were collected between 350 and 700 nm to exclude any interference with the determination of Hb oxidation (vide infra) and with the absorbance measurement at 450 nm of the immunoassay (Fig. S4). The absorption spectra of Hb solutions were collected in the Q bands region, between 450 and 650 nm, and compounds were added at a final concentration of 1 mM and incubated for 2 h at 4 °C, before the acquisition of the final spectrum (Fig. S5). These Hb absorption bands are sensitive to the redox status of the protein and thus allowed to ascertain whether the tested compounds interfere with the analysis by accelerating the oxidation of oxyHb to metHb, which in turn is susceptible to heme extraction by IsdB, thus introducing an artifact in the assay.

Compound solubilisation = format: physicochemical; settings: for solubility (in words): solvent as stated in the sentence
Protocol: The commercial compounds were solubilized in aqueous solutions to reach a 50 mM concentration, taking advantage of the pH and concentration-solubility profile estimated by Chemicalize (https://chemicalize.com/ developed by ChemAxon). When the molecules resulted partially or completely insoluble, the pH was adjusted based on their estimated pH-solubility profiles using either HCl or NaOH concentrated stocks. A cycle of sonication with an ultrasonic bath (Bormac CE-5700, 41300303) was performed for those compounds that resulted insoluble after pH adjustment. If sonication was insufficient, compounds were also heated in a thermoblock at 60 °C for ten minutes. For the compounds that were still not soluble, D6-DMSO was added. For some compounds, complete solubilization required to decrease the concentration of the stock solution. In Table 2 are reported the compounds that required dilution and/or addition of DMSO for solubilization.
(§1) The in-house synthesized compounds were solubilized at 100 mM concentration in D6-DMSO. We indicated with an asterisk (*) the in-house synthesized compounds to distinguish them from the commercial ones. […]. Molecules that resulted partially or completely insoluble were subjected to the same procedure followed for the commercial molecules, except for pH adjustments. The compounds that were highly insoluble were produced as TRIS salts.

[1] = Stability of dissolved compound by NMR and liquid chromatography; format: physicochemical
Protocol: as §1

[2] = molecular target: T1, IsdB:Hb complex (Y165A IsdB, oxyHb) (Homo sapiens, UniProt P68871+P69905); experiment: IsdB-based immunoassay for IsdB:Hb complex formation (screening of potential inhibitors); format: binding, Staphylococcus aureus IsdB; human Hb; settings: 30 µM oxyHb; for average percent of Hb bound to IsdB: commercial compounds at 1 mM, relative to negative control; for percentage of IsdB-bound Hb: in-house synthesized compounds at 1 mM
T1 construct: made in house
Protocol: Commercial and synthesized compounds were tested at 1 mM concentration.
Figure 6 Screening of the in silico identified compounds by the IsdB-based immunoassay. […] The lines at 100% and 50%, drawn as reference, were calculated from the absorbance signal at 450 nm measured on the negative control well (i.e. oxyHb incubated without the addition of compounds). Each measurement is the average of at least 2 replicates.
Each measurement is the average of at least two replicates. […] Color code indicates derivatives from a common parent compound indicated with the asterisk.

HbCO = HbCO (Homo sapiens, UniProt P68871+P69905); experiment: STD-NMR binding to Hb; settings: 20 µM Hb (heme), 25 °C; for quality of the peaks in the STD spectrum: 1 mM commercial compound; for binding to HbCO by STD-NMR (peaks in STD spectra): 1 mM compound
[3] = 50% D6-DMSO final concentration

NC(=O)C1CCN(CC(O)COc2ccc(OCC(O)CN3CCC(C(N)=O)CC3)cc2)CC1 (centres unmarked) [Compound C12]
oxidation of Hb upon a 2-h incubation (oxyHb): small effects

NNC(=O)C(=NNc1ccccc1C(=O)NN)C(=O)NN [Compound C17]
oxidation of Hb upon a 2-h incubation (oxyHb): small effects | Stock H2O (Compound solubilisation; [3]): 25 (50% D6-DMSO final concentration) mM

CC(C)CC(NC(=O)C(Cc1ccccc1)NC(=O)CNC(=O)CNC(=O)OC(C)(C)C)C(=O)NC(CCCN=C(N)N)C(=O)O (centres unmarked) [Compound C28] (Boc-GGFLR-OH; configuration not given here)
oxidation of Hb upon a 2-h incubation (oxyHb): small effects | Stock H2O (Compound solubilisation; [3]): 25 (50% D6-DMSO final concentration) mM

NC(=O)Cn1cc(NC(=O)NC2CCC(O)CC2)cn1 (centres unmarked) [Compound C34]
Stock H2O (Compound solubilisation): 33 (50% D6-DMSO final concentration) mM

O=C(CSc1nnc(-c2c[nH]c3ccccc23)o1)Nc1ccc(C(=O)O)cc1 [Compound C35]
stability by NMR and liquid chromatography ([1]; dissolved in D6-DMSO): stable | stability in solution ([1]; dissolved in alkaline aqueous solution): underwent a rearrangement | solubility (Compound solubilisation; aqueous buffer, kinetic from dmso stock, 50 mM HEPES buffer, pH 7.6, diluted from 100 mM DMSO stock, read-out: concentration at which the compound was soluble): 500 µM (≈ 197 µg/mL) | solubility (in words) (Compound solubilisation): poorly soluble in water

Cc1[nH]ncc1C(=O)NCc1cc(OC2CCNC2)ccn1 (centres unmarked) [Compound C41]
average percent of Hb bound to IsdB [2]: lower than 55% | quality of the peaks in the STD spectrum (HbCO): very weak peaks | binding to HbCO by STD-NMR (peaks in STD spectra) (HbCO): gave peaks in the STD spectra; also recorded: only a methyl group was binding to Hb

NC(=O)NC(=O)CCCSc1nnc(N)s1 [Compound C44]
average percent of Hb bound to IsdB [2]: lower than 55% | percentage of IsdB-bound Hb [2]: above 60% | quality of the peaks in the STD spectrum (HbCO): very weak peaks | binding to HbCO by STD-NMR (peaks in STD spectra) (HbCO): gave peaks in the STD spectra | Stock H2O (Compound solubilisation; [3]): 44 (50% D6-DMSO final concentration) mM | solubility (in words) (Compound solubilisation): solubility issues | solubility (in words) (Compound solubilisation; listed as C44*): difficult to dissolve in DMSO

NC(=O)COc1ccc(CNC2CCCN(c3cccnn3)C2)cc1 (centres unmarked) [Compound C50]
average percent of Hb bound to IsdB [2]: lower than 55% | binding to HbCO by STD-NMR (peaks in STD spectra) (HbCO): no peaks were observed

COC(=O)c1[nH]n(-c2ccc(C(=O)O)cc2)c(=O)c1CCO [Compound C53]
average percent of Hb bound to IsdB [2]: lower than 55% | percentage of IsdB-bound Hb [2]: above 60% | quality of the peaks in the STD spectrum (HbCO): very weak peaks | binding to HbCO by STD-NMR (peaks in STD spectra) (HbCO): gave peaks in the STD spectra | binding to HbCO by STD-NMR (peaks in STD spectra) (HbCO; listed as C53*): confirmed binding to HbCO | solubility (in words) (Compound solubilisation): solubility issues

CC(C)(Sc1nnc(-c2c[nH]c3ccccc23)o1)C(=O)Nc1ccc(C(=O)O)cc1 [Compound C59]
solubility (in words) (Compound solubilisation): poorly soluble

Cn1cc(-c2nnc(SCC(=O)Nc3ccc(C(=O)O)cc3)o2)c2ccccc21 [Compound C61]
solubility (in words) (Compound solubilisation): poorly soluble

O=C(CSc1nnc(-c2c[nH]c3ncccc23)o1)Nc1ccc(C(=O)O)cc1 [Compound C63]
solubility (in words) (Compound solubilisation): poorly soluble

O=C(O)Cn1cc(-c2nnc(SCC(=O)Nc3ccc(C(=O)O)cc3)o2)c2ccccc21 [Compound C65]
solubility (in words) (Compound solubilisation): poorly soluble

Source: PMC11003968, “Identification of small molecules affecting the interaction between human hemoglobin and Staphylococcus aureus IsdB hemophore” (Scientific Reports, 2024)
